{"source": "patent US10654917B2", "about": "“Antibody molecules and peptide delivery systems for use in alzheimer's disease and related disorders” (TECHNOPHAGE, INVESTIGAÇĀO E DESENVOLVIMENTO EM …, priority 2015, dated 2020)", "key": {"[1]": {"experiment": "Biodistribution of technetium-labelled peptides", "assay_type": "in vivo, CD1 mice", "protocol": "To evaluate the capacity to cross the BBB in vivo, the selected peptides, pepH1 and pepH3, were analyzed for biodistribution in CD1 mice. The peptides were labelled with technetium at a final concentration of 8.5×10^−5 M and diluted in PBS. CD1 mice were injected (iv injection, tail vein). The mice were sacrificed by cervical dislocation after 5 and 60 minutes of incubation. The tissues of interest were dissected and washed to remove excess blood, weighed, and measured for radioactivity. Technetium radioactivity of the different peptides was measured for different organs.\nInitial results are presented in Table 11, where “% I.A. refers to the “% injected activity”, that is, the amount of radioactivity measured in a given organ compared to the total originally injected.\nThe biodistribution studies were repeated, using higher doses of each peptide, specifically, a one hundred fold increase, as well as using PepH2 as a negative control, and allowing incubation for 2 minutes and 60 minutes. Tissue biodistribution profile in percentage of injected radiopeptide activity per gram of tissue/organ was measured and results are presented in Table 12."}, "[2]": {"experiment": "Partition coefficient (log Po/w) of radiopeptides", "assay_type": "physicochemical", "description": "Table 7 lists each peptide's name, isoelectric point (PI), charge (number of positive residues), calculated mass (in Da), and ion found; as well as the name, calculated mass, and found ion for the corresponding conjugate; and also retention times in HPLC and the partition coefficient (log Po/w). These values allowed the determination of the hydrophilic nature of peptides, where pepH1 and pepH4 were identified as the most hydrophilic peptides."}}, "note": "Where two headings read alike, the source gives them in different places. Residues, ends and D or L forms follow the SMILES beside them. *: point of attachment. X1 = Cc1nn(CCN(CCN)CCCC(=O)*)c(C)c1CC(=O)O", "data": [{"smiles": "Cc1nn(CCN(CCN)CCCC(=O)N[C@H](C(=O)N[C@@H](CCC(N)=O)C(=O)N[C@@H](CCC(N)=O)C(=O)N[C@@H](CC(C)C)C(=O)N[C@H](C(=O)N[C@@H](CCCCN)C(=O)N[C@@H](CCCNC(=N)N)C(=O)N[C@@H](Cc2ccccc2)C(=O)N[C@@H](CO)C(=O)N[C@@H](CC(C)C)C(=O)O)[C@@H](C)O)C(C)C)c(C)c1CC(=O)O", "note": "[^99mTc(CO)3-Pz^1-pepH1, metal not drawn] (X1-VQQLTKRFSL-OH; C-terminus assumed)", "values": [{"measurement": "injected activity in Blood", "setting": "[1]; 140 μg/mouse, 1 hour", "result": "1.0 ± 0.2", "unit": "% I.A./g"}, {"measurement": "injected activity in Bone", "setting": "[1]; 140 μg/mouse, 1 hour", "result": "0.16 ± 0.01", "unit": "% I.A./g"}, {"measurement": "injected activity in Brain", "setting": "[1]; 140 μg/mouse, 1 hour", "result": "0.03 ± 0.00", "unit": "% I.A./g"}, {"measurement": "injected activity in Heart", "setting": "[1]; 140 μg/mouse, 1 hour", "result": "0.39 ± 0.02", "unit": "% I.A./g"}, {"measurement": "injected activity in Intestine", "setting": "[1]; 140 μg/mouse, 1 hour", "result": "13.0 ± 2.0", "unit": "% I.A./g"}, {"measurement": "injected activity in Kidney", "setting": "[1]; 140 μg/mouse, 1 hour", "result": "1.6 ± 0.3", "unit": "% I.A./g"}, {"measurement": "injected activity in Liver", "setting": "[1]; 140 μg/mouse, 1 hour", "result": "2.4 ± 1.0", "unit": "% I.A./g"}, {"measurement": "injected activity in Lung", "setting": "[1]; 140 μg/mouse, 1 hour", "result": "1.4 ± 0.3", "unit": "% I.A./g"}, {"measurement": "injected activity in Muscle", "setting": "[1]; 140 μg/mouse, 1 hour", "result": "0.2 ± 0.0", "unit": "% I.A./g"}, {"measurement": "injected activity in Spleen", "setting": "[1]; 140 μg/mouse, 1 hour", "result": "0.22 ± 0.01", "unit": "% I.A./g"}, {"measurement": "injected activity in Stomach", "setting": "[1]; 140 μg/mouse, 1 hour", "result": "0.31 ± 0.08", "unit": "% I.A./g"}, {"measurement": "tissue uptake at 2 min", "setting": "[1]; CD1, blood, iv, 140 ug/mouse, total radioactivity, 140 μg/mouse, 2 min, read-out: injected activity in Blood", "result": "3.1 ± 0.5", "unit": "%ID/g"}, {"measurement": "tissue uptake at 2 min", "setting": "[1]; CD1, bone, iv, 140 ug/mouse, total radioactivity, 140 μg/mouse, 2 min, read-out: injected activity in Bone", "result": "0.6 ± 0.2", "unit": "%ID/g"}, {"measurement": "tissue uptake at 2 min", "setting": "[1]; CD1, brain, iv, 140 ug/mouse, total radioactivity, 140 μg/mouse, 2 min, read-out: injected activity in Brain", "result": "0.11 ± 0.02", "unit": "%ID/g"}, {"measurement": "tissue uptake at 2 min", "setting": "[1]; CD1, heart, iv, 140 ug/mouse, total radioactivity, 140 μg/mouse, 2 min, read-out: injected activity in Heart", "result": "1.1 ± 0.4", "unit": "%ID/g"}, {"measurement": "dose excreted at 2 min", "setting": "[1]; CD1, in vivo, iv, 140 ug/mouse, total radioactivity, 140 μg/mouse, 2 min, read-out: Excretion", "result": "17.1 ± 7.9", "unit": "%"}, {"measurement": "dose excreted at 1 h", "setting": "[1]; CD1, in vivo, iv, 140 ug/mouse, total radioactivity, 140 μg/mouse, 1 hour, read-out: Excretion", "result": "32.7 ± 0.2", "unit": "%"}, {"measurement": "tissue uptake at 2 min", "setting": "[1]; CD1, intestine, iv, 140 ug/mouse, total radioactivity, 140 μg/mouse, 2 min, read-out: injected activity in Intestine", "result": "3.8 ± 2.3", "unit": "%ID/g"}, {"measurement": "tissue uptake at 2 min", "setting": "[1]; CD1, kidney, iv, 140 ug/mouse, total radioactivity, 140 μg/mouse, 2 min, read-out: injected activity in Kidney", "result": "14.6 ± 8.2", "unit": "%ID/g"}, {"measurement": "tissue uptake at 2 min", "setting": "[1]; CD1, liver, iv, 140 ug/mouse, total radioactivity, 140 μg/mouse, 2 min, read-out: injected activity in Liver", "result": "7 ± 1.1", "unit": "%ID/g"}, {"measurement": "tissue uptake at 2 min", "setting": "[1]; CD1, lung, iv, 140 ug/mouse, total radioactivity, 140 μg/mouse, 2 min, read-out: injected activity in Lung", "result": "2.6 ± 0.5", "unit": "%ID/g"}, {"measurement": "tissue uptake at 2 min", "setting": "[1]; CD1, muscle, iv, 140 ug/mouse, total radioactivity, 140 μg/mouse, 2 min, read-out: injected activity in Muscle", "result": "0.6 ± 0.2", "unit": "%ID/g"}, {"measurement": "tissue uptake at 2 min", "setting": "[1]; CD1, spleen, iv, 140 ug/mouse, total radioactivity, 140 μg/mouse, 2 min, read-out: injected activity in Spleen", "result": "0.7 ± 0.2", "unit": "%ID/g"}, {"measurement": "tissue uptake at 2 min", "setting": "[1]; CD1, stomach, iv, 140 ug/mouse, total radioactivity, 140 μg/mouse, 2 min, read-out: injected activity in Stomach", "result": "0.7 ± 0.4", "unit": "%ID/g"}, {"measurement": "tissue uptake at 5 min", "setting": "[1]; mouse, blood, 10 ug, total radioactivity, CD1 mice, iv, 5 min, 10 μg, read-out: injected activity in Blood", "result": "3.1 ± 0.5", "unit": "%ID/g"}, {"measurement": "tissue uptake at 1 h", "setting": "[1]; mouse, blood, 10 ug, total radioactivity, CD1 mice, iv, 1 hour, 10 μg, read-out: injected activity in Blood", "result": "1 ± 0.2", "unit": "%ID/g"}, {"measurement": "tissue uptake at 5 min", "setting": "[1]; mouse, bone, 10 ug, total radioactivity, CD1 mice, iv, 5 min, 10 μg, read-out: injected activity in Bone", "result": "0.6 ± 0.2", "unit": "%ID/g"}, {"measurement": "tissue uptake at 1 h", "setting": "[1]; mouse, bone, 10 ug, total radioactivity, CD1 mice, iv, 1 hour, 10 μg, read-out: injected activity in Bone", "result": "0.16 ± 0.01", "unit": "%ID/g"}, {"measurement": "tissue uptake at 5 min", "setting": "[1]; mouse, brain, 10 ug, total radioactivity, CD1 mice, iv, 5 min, 10 μg, read-out: injected activity in Brain", "result": "0.11 ± 0.02", "unit": "%ID/g"}, {"measurement": "tissue uptake at 1 h", "setting": "[1]; mouse, brain, 10 ug, total radioactivity, CD1 mice, iv, 1 hour, 10 μg, read-out: injected activity in Brain", "result": 0.03, "unit": "%ID/g"}, {"measurement": "tissue uptake at 5 min", "setting": "[1]; mouse, heart, 10 ug, total radioactivity, CD1 mice, iv, 5 min, 10 μg, read-out: injected activity in Heart", "result": "1.1 ± 0.4", "unit": "%ID/g"}, {"measurement": "tissue uptake at 1 h", "setting": "[1]; mouse, heart, 10 ug, total radioactivity, CD1 mice, iv, 1 hour, 10 μg, read-out: injected activity in Heart", "result": "0.39 ± 0.02", "unit": "%ID/g"}, {"measurement": "percent of injected dose excreted at 5 min", "setting": "[1]; mouse, in vivo, 10 ug, total radioactivity, CD1 mice, iv, 5 min, 10 μg, read-out: Excretion", "result": "17.1 ± 7.9", "unit": "%ID"}, {"measurement": "percent of injected dose excreted at 1 h", "setting": "[1]; mouse, in vivo, 10 ug, total radioactivity, CD1 mice, iv, 1 hour, 10 μg, read-out: Excretion", "result": "32.7 ± 0.2", "unit": "%ID"}, {"measurement": "tissue uptake at 5 min", "setting": "[1]; mouse, intestine, 10 ug, total radioactivity, CD1 mice, iv, 5 min, 10 μg, read-out: injected activity in Intestine", "result": "3.8 ± 2.3", "unit": "%ID/g"}, {"measurement": "tissue uptake at 1 h", "setting": "[1]; mouse, intestine, 10 ug, total radioactivity, CD1 mice, iv, 1 hour, 10 μg, read-out: injected activity in Intestine", "result": "13 ± 2", "unit": "%ID/g"}, {"measurement": "tissue uptake at 5 min", "setting": "[1]; mouse, kidney, 10 ug, total radioactivity, CD1 mice, iv, 5 min, 10 μg, read-out: injected activity in Kidney", "result": "14.6 ± 8.2", "unit": "%ID/g"}, {"measurement": "tissue uptake at 1 h", "setting": "[1]; mouse, kidney, 10 ug, total radioactivity, CD1 mice, iv, 1 hour, 10 μg, read-out: injected activity in Kidney", "result": "1.6 ± 0.3", "unit": "%ID/g"}, {"measurement": "tissue uptake at 5 min", "setting": "[1]; mouse, liver, 10 ug, total radioactivity, CD1 mice, iv, 5 min, 10 μg, read-out: injected activity in Liver", "result": "7 ± 1.1", "unit": "%ID/g"}, {"measurement": "tissue uptake at 1 h", "setting": "[1]; mouse, liver, 10 ug, total radioactivity, CD1 mice, iv, 1 hour, 10 μg, read-out: injected activity in Liver", "result": "2.4 ± 1", "unit": "%ID/g"}, {"measurement": "tissue uptake at 5 min", "setting": "[1]; mouse, lung, 10 ug, total radioactivity, CD1 mice, iv, 5 min, 10 μg, read-out: injected activity in Lung", "result": "2.6 ± 0.5", "unit": "%ID/g"}, {"measurement": "tissue uptake at 1 h", "setting": "[1]; mouse, lung, 10 ug, total radioactivity, CD1 mice, iv, 1 hour, 10 μg, read-out: injected activity in Lung", "result": "1.4 ± 0.3", "unit": "%ID/g"}, {"measurement": "tissue uptake at 5 min", "setting": "[1]; mouse, muscle, 10 ug, total radioactivity, CD1 mice, iv, 5 min, 10 μg, read-out: injected activity in Muscle", "result": "0.6 ± 0.2", "unit": "%ID/g"}, {"measurement": "tissue uptake at 1 h", "setting": "[1]; mouse, muscle, 10 ug, total radioactivity, CD1 mice, iv, 1 hour, 10 μg, read-out: injected activity in Muscle", "result": 0.2, "unit": "%ID/g"}, {"measurement": "tissue uptake at 5 min", "setting": "[1]; mouse, pancreas, 10 ug, total radioactivity, CD1 mice, iv, 5 min, 10 μg, read-out: injected activity in Pancreas", "result": "0.8 ± 0.2", "unit": "%ID/g"}, {"measurement": "tissue uptake at 1 h", "setting": "[1]; mouse, pancreas, 10 ug, total radioactivity, CD1 mice, iv, 1 hour, 10 μg, read-out: injected activity in Pancreas", "result": "0.41 ± 0.01", "unit": "%ID/g"}, {"measurement": "tissue uptake at 5 min", "setting": "[1]; mouse, spleen, 10 ug, total radioactivity, CD1 mice, iv, 5 min, 10 μg, read-out: injected activity in Spleen", "result": "0.7 ± 0.2", "unit": "%ID/g"}, {"measurement": "tissue uptake at 1 h", "setting": "[1]; mouse, spleen, 10 ug, total radioactivity, CD1 mice, iv, 1 hour, 10 μg, read-out: injected activity in Spleen", "result": "0.22 ± 0.01", "unit": "%ID/g"}, {"measurement": "tissue uptake at 5 min", "setting": "[1]; mouse, stomach, 10 ug, total radioactivity, CD1 mice, iv, 5 min, 10 μg, read-out: injected activity in Stomach", "result": "0.7 ± 0.4", "unit": "%ID/g"}, {"measurement": "tissue uptake at 1 h", "setting": "[1]; mouse, stomach, 10 ug, total radioactivity, CD1 mice, iv, 1 hour, 10 μg, read-out: injected activity in Stomach", "result": "0.31 ± 0.08", "unit": "%ID/g"}, {"measurement": "log Po/w of radiopeptides", "setting": "[2]", "result": "−1.76 ± 0.11"}]}]}
